How the values were obtained:
Type in all cases: in vivo
[1] = test system: Echinochloa oryzacola Vasing.; assay: Test Example 1: herbicidal activity, application before weed generation in submerged conditions (symbol A); settings: application herbicide amount 320 g/ha
Outline: (§1)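 Compound emulsion was diluted to a set herbicide amount and applied to the water surface on the sowing day, into submerged (4 cm) alluvial-soil pots sown with mixed weed seeds and transplanted 2.5-leaf rice. Pots were held in a 25–30 °C greenhouse, and weeds were scored 0–5 by herbicidal ratio after 3 weeks.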

Monochoria vaginalis [2] = assay: Test Example 1: herbicidal activity, application before weed generation in submerged conditions (symbol C); settings: application herbicide amount 320 g/ha
Outline: as §1

Monochoria vaginalis [3] = assay: Test Example 2: herbicidal activity, application during weed generation in submerged conditions (symbol C); settings: Table 23; application herbicide amount 320 g/ha; grade 0-5 by criteria of Test Example 1
Outline: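 Scoring of herbicidal effect took place 3 weeks after treatment, using the criteria of the earlier test. Treatment was water-surface application of diluted emulsifiable compound at a set dose. Plants were at one- to two-leaf stage in submerged alluvial soil (4 cm depth), greenhouse 25-30° C.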

[4] = test system: Echinochloa crus-galli var. crus-galli; assay: Test Example 4: herbicidal effect by soil treatment (symbol H); settings: application herbicide amount 320 g/ha
Outline: (§2)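 Seeds were sown in sterilized diluvial soil, covered with about 1.5 cm of soil, and the soil surface was sprayed with a water-diluted emulsion of the compound at a predetermined rate. Plants grew in a greenhouse at 25° C. to 30° C.; effects were scored visually 3 weeks after application.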

Avena fatua [5] = assay: Test Example 4: herbicidal effect by soil treatment (symbol I); settings: application herbicide amount 320 g/ha
Outline: as §2

Apera spica-venti [6] = assay: Test Example 4: herbicidal effect by soil treatment (symbol L); settings: application herbicide amount 320 g/ha
Outline: as §2

Abutilon theophrasti = assay: Test Example 4: herbicidal effect by soil treatment (symbol M); settings: application herbicide amount 320 g/ha
Outline: as §2

soybean = assay: Test Example 4: effect on crop by soil treatment (symbol d); settings: application herbicide amount 320 g/ha
Outline: (§3)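 Steps: fill box with sterilized diluvial soil; sow seed spot-like; cover with ~1.5 cm soil; grow in greenhouse (25° C. to 30° C.).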

rice = assay: Test Example 4: effect on crop by soil treatment (symbol b); settings: application herbicide amount 320 g/ha
Outline: as §3

beet = assay: Test Example 4: effect on crop by soil treatment (symbol f); settings: application herbicide amount 320 g/ha
Outline: as §3

Setaria viridis = assay: Test Example 5: herbicidal effect by foliage application, plastic box (symbol G); settings: 320 g/ha, 3 weeks after application
Outline: (§4)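 Effect is rated 3 weeks after a foliar spray of water-diluted emulsion concentrate at a predetermined herbicide amount. Plants had grown 14 days in a 25° C. to 30° C. greenhouse from seed in sterilized diluvial soil.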

[7] = test system: Echinochloa crus-galli var. crus-galli; assay: Test Example 5: herbicidal effect by foliage application, plastic box (symbol H); settings: 320 g/ha, 3 weeks after application
Outline: as §4

Avena fatua [8] = assay: Test Example 5: herbicidal effect by foliage application, plastic box (symbol I); settings: 320 g/ha, 3 weeks after application
Outline: as §4

Apera spica-venti [9] = assay: Test Example 5: herbicidal effect by foliage application, plastic box (symbol L); settings: 320 g/ha, 3 weeks after application
Outline: as §4

corn = assay: Test Example 5: effect on crop by foliage application, plastic box (symbol c); settings: 320 g/ha, 3 weeks after application
Outline: (§5)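 Greenhouse test at 25° C. to 30° C. Seeds of crops and weeds were spot-sown in boxes of sterilized diluvial soil under roughly 1.5 cm soil cover, then grown for foliage treatment.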

rapeseed = assay: Test Example 5: effect on crop by foliage application, plastic box (symbol g); settings: 320 g/ha, 3 weeks after application
Outline: as §5

Structure (SMILES) | Herbicidal effect grade, A: Echinochloa oryzacola Vasing. [1] | Herbicidal effect grade, C: Monochoria vaginalis (Monochoria vaginalis [2]) | Herbicidal effect grade, C: Monochoria vaginalis (Monochoria vaginalis [3]) | H (Echinochloa crus-galli var. crus-galli) herbicidal effect grade [4] | I (Avena fatua) herbicidal effect grade (Avena fatua [5]) | L (Apera spica-venti) herbicidal effect grade (Apera spica-venti [6]) | M (Abutilon theophrasti) herbicidal effect grade (Abutilon theophrasti) | d (soybean) effect on crop grade (soybean) | b (directly sowed rice plant) effect on crop grade (rice) | f (beet) effect on crop grade (beet) | G: Setaria viridis, herbicidal effect grade (Setaria viridis) | H: Echinochloa crus-galli var. crus-galli, herbicidal effect grade [7] | I: Avena fatua, herbicidal effect grade (Avena fatua [8]) | L: Apera spica-venti, herbicidal effect grade (Apera spica-venti [9]) | c: corn, effect on crop grade (corn) | g: rapeseed, effect on crop grade (rapeseed) | further results
CON=C(C)CC1CC(OC(=O)C(C)(C)CCl)=C(c2c(C)cc(C)cc2C)C1=O (stereo not shown) [1-016] | 5 (Herbicidal ratio of 90% or more (almost completely withered)) | 4 (Herbicidal ratio of 70% or higher and lower than 90%) | 3 (Herbicidal ratio of 40% or higher and lower than 70%) | 5 (Herbicidal ratio of 90% or more (almost completely withered)) | 5 (Herbicidal ratio of 90% or more (almost completely withered)) | 5 (Herbicidal ratio of 90% or more (almost completely withered)) | 5 (Herbicidal ratio of 90% or more (almost completely withered)) | 3 (Herbicidal ratio of 40% or higher and lower than 70%) | 5 (Herbicidal ratio of 90% or more (almost completely withered)) | 0 (Herbicidal ratio of 5% or lower (almost no effect)) | 5 (Herbicidal ratio of 90% or more (almost completely withered)) | 5 (Herbicidal ratio of 90% or more (almost completely withered)) | 5 (Herbicidal ratio of 90% or more (almost completely withered)) | 5 (Herbicidal ratio of 90% or more (almost completely withered)) | 4 (Herbicidal ratio of 70% or higher and lower than 90%) | 4 (Herbicidal ratio of 70% or higher and lower than 90%) | 
CON=C(C)CC1CC(O)=C(c2c(C)cc(-c3ncccn3)cc2C)C1=O (mixture of isomers) [6-057] | 3 (Herbicidal ratio of 40% or higher and lower than 70%) | 1 (Herbicidal ratio of 5% or higher and lower than 20%) | 0 (Herbicidal ratio of 5% or lower (almost no effect)) |  |  |  |  |  |  |  |  |  |  |  |  |  | H: Echinochloa crus-galli var. crus-galli, herbicidal effect grade [4]: 5 (Herbicidal ratio of 90% or more (almost completely withered)); I: Avena fatua, herbicidal effect grade (Avena fatua [5]): 0 (Herbicidal ratio of 5% or lower (almost no effect)); L: Apera spica-venti, herbicidal effect grade (Apera spica-venti [6]): 4 (Herbicidal ratio of 70% or higher and lower than 90%); M: Abutilon theophrasti, herbicidal effect grade (Abutilon theophrasti): 0 (Herbicidal ratio of 5% or lower (almost no effect)); d: soybean, effect on crop grade (soybean): 0 (Herbicidal ratio of 5% or lower (almost no effect)); b: directly sowed rice plant, effect on crop grade (rice): 5 (Herbicidal ratio of 90% or more (almost completely withered)); f: beet, effect on crop grade (beet): 0 (Herbicidal ratio of 5% or lower (almost no effect)); G: Setaria viridis, herbicidal effect (criteria of Test Example 1) (Setaria viridis): 5 (Herbicidal ratio of 90% or more (almost completely withered)); H: Echinochloa crus-galli var. crus-galli, herbicidal effect (criteria of Test Example 1) [7]: 5 (Herbicidal ratio of 90% or more (almost completely withered)); I: Avena fatua, herbicidal effect (criteria of Test Example 1) (Avena fatua [8]): 5 (Herbicidal ratio of 90% or more (almost completely withered)); L: Apera spica-venti, herbicidal effect (criteria of Test Example 1) (Apera spica-venti [9]): 5 (Herbicidal ratio of 90% or more (almost completely withered)); c: corn, effect on crop (criteria of Test Example 1) (corn): 5 (Herbicidal ratio of 90% or more (almost completely withered)); g: rapeseed, effect on crop (criteria of Test Example 1) (rapeseed): 5 (Herbicidal ratio of 90% or more (almost completely withered))
CON=C(C)C(=O)C1CC(O)=C(c2c(C)cc(C)cc2C)C1=O (stereo not shown) [8-002] | 0 (Herbicidal ratio of 5% or lower (almost no effect)) | 0 (Herbicidal ratio of 5% or lower (almost no effect)) | 0 (Herbicidal ratio of 5% or lower (almost no effect)) |  |  |  |  |  |  |  | 0 (Herbicidal ratio of 5% or lower (almost no effect)) | 3 (Herbicidal ratio of 40% or higher and lower than 70%) | 3 (Herbicidal ratio of 40% or higher and lower than 70%) | 3 (Herbicidal ratio of 40% or higher and lower than 70%) | 0 (Herbicidal ratio of 5% or lower (almost no effect)) | 1 (Herbicidal ratio of 5% or higher and lower than 20%) | Herbicidal effect grade, H: Echinochloa crus-galli var. crus-galli [4]: 2 (Herbicidal ratio of 20% or higher and lower than 40%); Herbicidal effect grade, I: Avena fatua (Avena fatua [5]): 0 (Herbicidal ratio of 5% or lower (almost no effect)); Herbicidal effect grade, L: Apera spica-venti (Apera spica-venti [6]): 0 (Herbicidal ratio of 5% or lower (almost no effect)); Herbicidal effect grade, M: Abutilon theophrasti (Abutilon theophrasti): 0 (Herbicidal ratio of 5% or lower (almost no effect)); Effect on crop grade, d: soybean (soybean): 0 (Herbicidal ratio of 5% or lower (almost no effect)); Effect on crop grade, b: directly sowed rice plant (rice): 0 (Herbicidal ratio of 5% or lower (almost no effect)); Effect on crop grade, f: beet (beet): 0 (Herbicidal ratio of 5% or lower (almost no effect))
CON=C(C)C(C(C)=NOC)C1CC(O)=C(c2c(C)cc(C)cc2C)C1=O (stereo not shown) [1-021] | 0 (Herbicidal ratio of 5% or lower (almost no effect)) | 0 (Herbicidal ratio of 5% or lower (almost no effect)) | 0 (Herbicidal ratio of 5% or lower (almost no effect)) | 0 (Herbicidal ratio of 5% or lower (almost no effect)) | 0 (Herbicidal ratio of 5% or lower (almost no effect)) | 0 (Herbicidal ratio of 5% or lower (almost no effect)) | 0 (Herbicidal ratio of 5% or lower (almost no effect)) | 0 (Herbicidal ratio of 5% or lower (almost no effect)) | 2 (Herbicidal ratio of 20% or higher and lower than 40%) | 0 (Herbicidal ratio of 5% or lower (almost no effect)) | 1 (Herbicidal ratio of 5% or higher and lower than 20%) | 3 (Herbicidal ratio of 40% or higher and lower than 70%) | 0 (Herbicidal ratio of 5% or lower (almost no effect)) | 4 (Herbicidal ratio of 70% or higher and lower than 90%) | 0 (Herbicidal ratio of 5% or lower (almost no effect)) | 2 (Herbicidal ratio of 20% or higher and lower than 40%) | 

From patent publication US11000033B2, “Ketone or oxime compound, and herbicide” (NISSAN CHEMICAL CORPORATION, priority 2014, dated 2021)
